Test results reported in US20260337583A1, “CYTOCHROME P450 ENZYME, NUCLEIC ACID MOLECULE, AND GLYCYRRHETINIC ACID DERIVATIVE AND USE THEREOF” (CHINA PHARMACEUTICAL UNIVERSITY, priority 2023, published 2026).
Read-outs that look alike come from different tables or passages of the source.

Columns and labels:
[1] = system: human colon cancer cells (SW480); assay: CCK-8 tumor cell growth inhibition, SW480; type: cell-based; details: for IC50: Homo sapiens, SW480, 48 h co-incubation, CCK-8, read-out: IC50 against SW480; for activity against human colon cancer cells compared with the parent compound 1 (glycyrrhetinic acid): relative to parent compound 1
Protocol: (§1) Human hepatocellular carcinoma cells (HepG2) and human colon cancer cells (SW480) were cultured in a complete culture medium consisting of high-glucose DMEM supplemented with 10% (v/v) heat-inactivated fetal bovine serum, 100 U/mL of penicillin, and […] of streptomycin. All cells used in the experiments were cultured in an incubator at 37° C. with 5% CO2 saturated humidity.
(§2) All compounds were dissolved in DMSO to prepare 20 mM compound stock solutions. • 10 μL of the compound stock solution was added to 1 mL of the complete culture medium to prepare a 200 μM compound solution; • 4 μL of the compound stock solution was added to 1 mL of the complete culture medium to prepare a 80 μM compound solution; • 0.5 mL of the 80 μM compound solution was added to 0.5 mL of the complete culture medium to prepare a 40 μM compound solution; • 0.5 mL of the 40 μM compound solution was added to 0.5 mL of the complete culture medium to prepare a 20 μM compound solution; • 0.5 mL of the 20 μM compound solution was added to 0.5 mL of the complete culture medium to prepare a 10 μM compound solution; • 0.5 mL of the 10 μM compound solution was added to 0.5 mL of the complete culture medium to prepare a 5 μM compound solution;
(§3) The inhibitory effects of the compounds on tumor cell growth were evaluated using a CCK-8 assay. A cell suspension at a predetermined density (5× 10^4/mL cells/mL) was seeded into a 96-well plate. Outermost 36 wells of the 96-well plate were filled with 200 μL of PBS buffer (0.01 M, pH 7.4), while inner 60 wells thereof were used as a drug group, a blank group, and a negative control group. Each group was tested in triplicate.
(§4) Drug group: 100 μL of the cell suspension was added to each well and incubated for 24 h, and 100 μL of the 80 μM compound solution (100 μL of the 200 μM solution was added to Compound 1) was added for co-incubating for another 48 h; 20 μL of CCK-8 solution was added to each well, followed by incubation for another 2 h; and absorbance at 450 nm was measured with a microplate reader.
(§5) Blank group: 100 μL of the complete culture medium was added to each well and incubated for 24 h, and 100 μL of the complete culture medium was then added for co-incubating for another 48 h; 20 μL of CCK-8 solution was added to each well, followed by incubation for another 2 h; and absorbance at 450 nm was measured with a microplate reader.
(§6) Negative control group: 100 μL of the cell suspension was added to each well and incubated for 24 h, and 100 μL of the complete culture medium containing 0.4 μL of DMSO was then added for co-incubating for another 48 h; 20 μL of CCK-8 solution was added to each well, followed by incubation for another 2 h; and absorbance at 450 nm was measured with a microplate reader.
(§7) The cell growth inhibitory ratio (IR) was calculated according to the following formulas:
(§8) [formula] • IR: Inhibitory Ratio • ODpositive: absorbance of the drug group • ODblank: absorbance of the blank group • ODnegative: absorbance of the negative control group
(§9) Each concentration was tested in triplicate. Based on the tumor cell inhibitory ratios at different concentrations, the IC50 was calculated using GraphPad Prism 9.

[2] = system: Human hepatocellular carcinoma cells (HepG2); assay: CCK-8 tumor cell growth inhibition, HepG2; type: cell-based; details: for IC50: Homo sapiens, HepG2, 48 h co-incubation, CCK-8, read-out: IC50 against HepG2
Protocol: as §1, §2, §3, §4, §5, §6, §7, §8, §9

CYP161H12 [3] = target: T1, CYP161H12 (Amycolatopsis pretoriensis, UniProt A0A1H5RFX8); assay: CYP161H12 catalytic activity on different substrates (cell-free CYP161H12-RHFRed/opt13 conversion, liquid chromatography); details: role: substrate; 2 mM substrate, 0.5 equiv. NADP+, 50 equiv. Na2HPO3·5H2O, 5% DMSO, pH 7.0, 23° C., 20 h; enzyme 3.68×10^−3 mM
T1 sequence (A0A1H5RFX8 1-404): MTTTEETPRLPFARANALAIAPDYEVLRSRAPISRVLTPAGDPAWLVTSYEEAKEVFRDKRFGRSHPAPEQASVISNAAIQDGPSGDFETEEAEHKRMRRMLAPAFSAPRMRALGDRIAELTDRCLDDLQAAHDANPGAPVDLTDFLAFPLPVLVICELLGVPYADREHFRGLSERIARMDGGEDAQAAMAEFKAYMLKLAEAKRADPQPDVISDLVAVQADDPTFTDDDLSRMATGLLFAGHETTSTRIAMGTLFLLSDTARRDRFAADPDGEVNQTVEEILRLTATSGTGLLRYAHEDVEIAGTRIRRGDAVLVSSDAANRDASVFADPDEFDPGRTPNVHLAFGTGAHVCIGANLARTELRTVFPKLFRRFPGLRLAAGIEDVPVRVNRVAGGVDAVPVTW

CYP161H12 [4] = target: T1, CYP161H12

SMILES	IC50 [1] [µM]	IC50 [2] [µM]	also measured
CC1(C)[C@@H](O)CC[C@]2(C)[C@H]3C(=O)C=C4[C@@H]5C[C@@](C)(C(=O)O)CC[C@]5(C)CC[C@@]4(C)[C@]3(C)CC[C@@H]12 [Compound 1, glycyrrhetinic acid]	> 100	> 100	yield of Substrate catalyzed by CYP161H12 (CYP161H12 [3]): 100%
CC1(C)[C@@H](O)CC[C@]2(C)[C@H]3C(=O)C=C4[C@@H]5C[C@@](C)(C(=O)O)CC[C@]5(C)CC[C@@]4(C)[C@]3(C)[C@@H](O)C[C@@H]12 [Compound 1a]	> 40	> 40	
CC1(C)[C@@H](O)CC[C@]2(C)[C@H]3C(=O)C=C4[C@@H]5C[C@@](C)(C(=O)O)CC[C@]5(C)C[C@H](O)[C@@]4(C)[C@]3(C)[C@@H](O)C[C@@H]12 [Compound 1b]	> 40	> 40	
CC(=O)O[C@H]1CC[C@]2(C)[C@H]3C(=O)C=C4[C@@H]5C[C@@](C)(C(=O)O)CC[C@]5(C)CC[C@@]4(C)[C@]3(C)[C@@H](O)C[C@H]2C1(C)C [Compound 2a]	> 40	> 40	
CC(=O)O[C@H]1CC[C@]2(C)[C@H]3C(=O)C=C4[C@@H]5C[C@@](C)(C(=O)O)CC[C@]5(C)C[C@H](O)[C@@]4(C)[C@]3(C)[C@@H](O)C[C@H]2C1(C)C [Compound 2b]	> 40	> 40	
CCC(=O)O[C@H]1CC[C@]2(C)[C@H]3C(=O)C=C4[C@@H]5C[C@@](C)(C(=O)O)CC[C@]5(C)CC[C@@]4(C)[C@]3(C)[C@@H](O)C[C@H]2C1(C)C [Compound 3a]	> 40	> 40	
CCCC(=O)O[C@H]1CC[C@]2(C)[C@H]3C(=O)C=C4[C@@H]5C[C@@](C)(C(=O)O)CC[C@]5(C)CC[C@@]4(C)[C@]3(C)[C@@H](O)C[C@H]2C1(C)C [Compound 4a]	> 40	> 40	
CC(=O)O[C@H]1CC[C@]2(C)[C@H]3C(=O)C=C4[C@@H]5C[C@@](C)(C(=O)O)CC[C@]5(C)CC[C@@]4(C)[C@]3(C)CC[C@H]2C1(C)C [Substrate 2, 3-acetyl-glycyrrhetinic acid]			yield of Substrate catalyzed by CYP161H12 (CYP161H12 [3]): 92%
CCC(=O)O[C@H]1CC[C@]2(C)[C@H]3C(=O)C=C4[C@@H]5C[C@@](C)(C(=O)O)CC[C@]5(C)CC[C@@]4(C)[C@]3(C)CC[C@H]2C1(C)C [Substrate 3, 3-propionyl-glycyrrhetinic acid]			yield of Substrate catalyzed by CYP161H12 (CYP161H12 [3]): 61%
CCCC(=O)O[C@H]1CC[C@]2(C)[C@H]3C(=O)C=C4[C@@H]5C[C@@](C)(C(=O)O)CC[C@]5(C)CC[C@@]4(C)[C@]3(C)CC[C@H]2C1(C)C [Substrate 4, 3-butyryl-glycyrrhetinic acid]			yield of Substrate catalyzed by CYP161H12 (CYP161H12 [3]): 23%
CC1(C)C(=O)CC[C@]2(C)[C@H]3C(=O)C=C4[C@@H]5C[C@@](C)(C(=O)O)CC[C@]5(C)CC[C@@]4(C)[C@]3(C)CC[C@@H]12 [Substrate 5, 3-oxo-glycyrrhetinic acid]			ratio of hydroxylated products a:b (CYP161H12 [4]): 76:24; yield of Substrate catalyzed by CYP161H12 (CYP161H12 [4]; pH 7): 87%
CC1(C)C(=O)C=C[C@]2(C)[C@H]3C(=O)C=C4[C@@H]5C[C@@](C)(C(=O)O)CC[C@]5(C)CC[C@@]4(C)[C@]3(C)CC[C@@H]12 [Substrate 6, 3-oxo-1-ene-glycyrrhetinic acid]			yield of Substrate catalyzed by CYP161H12 (CYP161H12 [3]): 81%
CC1(C)OC(=O)CC[C@]2(C)[C@H]3C(=O)C=C4[C@@H]5C[C@@](C)(C(=O)O)CC[C@]5(C)CC[C@@]4(C)[C@]3(C)CC[C@@H]12 [Substrate 7]			yield of Substrate catalyzed by CYP161H12 (CYP161H12 [3]): 87%
CC1(C)c2oncc2C[C@]2(C)[C@H]3C(=O)C=C4[C@H]5C[C@@](C)(C(=O)O)CC[C@]5(C)CC[C@@]4(C)[C@]3(C)CC[C@@H]12 [Substrate 8]			yield of Substrate catalyzed by CYP161H12 (CYP161H12 [3]): 97%

Second part, led by results:

IC50 [1] [µM]	IC50 [2] [µM]	SMILES	also measured
> 40	> 40	CC1(C)C(=O)CC[C@]2(C)[C@H]3C(=O)C=C4[C@@H]5C[C@@](C)(C(=O)O)CC[C@]5(C)CC[C@@]4(C)[C@]3(C)[C@@H](O)C[C@@H]12 [Compound 5a]	
> 40	> 40	CC1(C)C(=O)CC[C@]2(C)[C@H]3C(=O)C=C4[C@@H]5C[C@@](C)(C(=O)O)CC[C@]5(C)C[C@H](O)[C@@]4(C)[C@]3(C)[C@@H](O)C[C@@H]12 [Compound 5b]	
> 40	> 40	CC1(C)C(=O)C=C[C@]2(C)[C@H]3C(=O)C=C4[C@@H]5C[C@@](C)(C(=O)O)CC[C@]5(C)CC[C@@]4(C)[C@]3(C)[C@@H](O)C[C@@H]12 [Compound 6a]	
> 40	> 40	CC1(C)C(=O)C=C[C@]2(C)[C@H]3C(=O)C=C4[C@@H]5C[C@@](C)(C(=O)O)CC[C@]5(C)C[C@H](O)[C@@]4(C)[C@]3(C)[C@@H](O)C[C@@H]12 [Compound 6b]	
> 40	> 40	CC1(C)OC(=O)CC[C@]2(C)[C@H]3C(=O)C=C4[C@@H]5C[C@@](C)(C(=O)O)CC[C@]5(C)CC[C@@]4(C)[C@]3(C)[C@@H](O)C[C@@H]12 [Compound 7a]	
> 40	> 40	CC1(C)OC(=O)CC[C@]2(C)[C@H]3C(=O)C=C4[C@@H]5C[C@@](C)(C(=O)O)CC[C@]5(C)C[C@H](O)[C@@]4(C)[C@]3(C)[C@@H](O)C[C@@H]12 [Compound 7b]	
> 40	> 40	CC1(C)c2oncc2C[C@]2(C)[C@H]3C(=O)C=C4[C@@H]5C[C@@](C)(C(=O)O)CC[C@]5(C)CC[C@@]4(C)[C@]3(C)[C@@H](O)C[C@@H]12 [Compound 8a]	
> 40	> 40	CC1(C)c2oncc2C[C@]2(C)[C@H]3C(=O)C=C4[C@@H]5C[C@@](C)(C(=O)O)CC[C@]5(C)C[C@H](O)[C@@]4(C)[C@]3(C)[C@@H](O)C[C@@H]12 [Compound 8b]	
> 40	> 40	COC(=O)[C@@]1(C)CC[C@]2(C)CCC3(C)C(=CC(=O)[C@@H]4[C@@]5(C)CC[C@H](O)C(C)(C)[C@@H]5C[C@H](O)[C@]43C)[C@@H]2C1 (some centres unmarked) [Compound 9a]	
> 40	> 40	COC(=O)[C@@]1(C)CC[C@]2(C)C[C@H](O)[C@]3(C)C(=CC(=O)[C@@H]4[C@@]5(C)CC[C@H](O)C(C)(C)[C@@H]5C[C@H](O)[C@]43C)[C@@H]2C1 [Compound 9b]	
39.2 ± 2.34	> 40	C=CCCCCOC(=O)[C@@]1(C)CC[C@]2(C)CC[C@]3(C)C(=CC(=O)[C@@H]4[C@@]5(C)CC[C@H](O)C(C)(C)[C@@H]5C[C@H](O)[C@]43C)[C@@H]2C1 [Compound 10a]	activity against human colon cancer cells compared with the parent compound 1 (glycyrrhetinic acid) [1]: more than twice the activity
32 ± 3.36	38.6 ± 0.54	C=CCCCCOC(=O)[C@@]1(C)CC[C@]2(C)C[C@H](O)[C@]3(C)C(=CC(=O)[C@@H]4[C@@]5(C)CC[C@H](O)C(C)(C)[C@@H]5C[C@H](O)[C@]43C)[C@@H]2C1 [Compound 10b]	activity against human colon cancer cells compared with the parent compound 1 (glycyrrhetinic acid) [1]: more than twice the activity; activity against human liver cancer cells compared with the parent compound 1 (glycyrrhetinic acid) ([2]; relative to parent compound 1): more than twice the activity
